From PMC8746858 (Molecules, 2021)
In brackets after ≈: the same amount, converted by molar mass. Where two headings read alike, the source gives them in different places.

What was measured:
[1] = test system: fibroblasts (NIH/3T3 cells); experiment: cells; details: Mus musculus, NIH3T3, 24 h
Procedure: (§1) Finally, control experiments with non-treated cells were performed.
The effect of the compounds on the viability of murine 3T3 fibroblasts was estimated using NRU assay. After the incubation time (24 h) cells, media were removed, then to each well we added 100 µL of medium containing neutral red (50 µg/mL). […] The plates were shaken for 10 min at room temperature. Then, the absorption at 540 nm was measured using a microplate reader (Biosan). The results were calculated for each sample concentration as a percentage of medium control. The values are presented as mean ± standard deviation of three independent experiments.

[2] = TG, air atmosphere, 10 °C·min^−1
[3] = Solubility in typical solvents, modified Vogel method; details: 25 °C
Text: For this purpose, dimethyl sulfoxide, ethanol, chloroform, ethyl acetate, diethyl ether, toluene, and n-hexane were used as solvents.

[4] = test system: human keratinocytes (HaCaT cells); experiment: MTT viability assay; details: Homo sapiens, HaCaT, 24 h
Procedure: as §1
(§2) We applied an assay based on the reduction of methyl thiazol tetrazolium bromide (MTT) to assess the effect of the compounds on the viability of HaCaT cells. […] After that, the cells were lysed with a solution of DMSO:ethanol (1:1 v/v). The absorbance of the reduced formazan dye product was read at 560 nm in a microplate reader (Biosan). The results were calculated for each sample concentration as a percentage of medium control. The values are presented as mean ± standard deviation of three independent experiments.

MTT viability assay = details: human, HaCaT keratinocytes
Procedure: as §1, §2

[5] = Solubility in water, HPLC of saturated solutions
Procedure: Then, the obtained saturated solutions were diluted 100 times and analyzed. […] A mixture of 50% acetonitrile and 50% water was used as the mobile phase. The flow rate was 1 cm^3·min^−1. The column temperature was 30 °C. A Luna® Omega 3 µm Polar C18 100 Å column with dimensions of 150 × 4.6 mm was used. The injection volume for these samples was 50 mm^3. Each measurement was performed in triplicate, and the results were averaged.

**Q.** With `O=C(O)c1ccccc1O` [SA, Salicylic acid, reference compound] as the compound, how does the IC50 [1] read?
**A.** 300 ± 6 µg/mL

**Q.** And the IC50 ([1]; read-out: IC50 (in mM))?
**A.** ~2.2 mM

**Q.** What about the “Tonset, the onset of the thermal degradation” value [2] of the same compound?
**A.** 171.3 °C

**Q.** And the “Solubility in Chloroform (39.1)” value [3]?
**A.** +/− (partially soluble 33–100 mg·cm^−3)

**Q.** And the “Solubility in DMSO (45.1)” value [3]?
**A.** + (soluble >100 mg·cm^−3)

**Q.** And the “Solubility in Diethyl ether (34.5)” value [3]?
**A.** + (soluble >100 mg·cm^−3)

**Q.** What about the “Solubility in Ethanol (51.9)” value [3] of the same compound?
**A.** + (soluble >100 mg·cm^−3)

**Q.** What about the “Solubility in Ethyl Acetate (38.1)” value [3] of the same compound?
**A.** + (soluble >100 mg·cm^−3)

**Q.** And the “Solubility in Toluene (33.9)” value [3]?
**A.** +/− (partially soluble 33–100 mg·cm^−3)

**Q.** What about the “Solubility in n-Hexane (31.0)” value [3] of the same compound?
**A.** − (insoluble < 33 mg·cm^−3)

**Q.** What about the “Solubility in Water (63.1)” value ([3]; ET(30) in parentheses) of the same compound?
**A.** +/− (partially soluble 33–100 mg·cm^−3)

**Q.** And the IC50 [4]?
**A.** 200 ± 100 µg/mL

**Q.** What about the IC50 ([4]; read-out: IC50 (in mM)) of the same compound?
**A.** ~1.6 mM

**Q.** What about the viability at 48 h, 0.4 mM (MTT viability assay) of the same compound?
**A.** 71 ± 3%

**Q.** What about the “Solubility in Water at 25 °C” value ([5]; 25 °C, amount of active compound (SA) per dm^3) of the same compound?
**A.** 3.852 ± 0.004 g SA·dm^−3

**Q.** What about the solubility ([5]; water) of the same compound?
**A.** 3852 ± 4 µg/mL (≈ 27.9 mM)
